Experiments:
c-Kit kinase = c-Kit kinase (Homo sapiens, UniProt P10721); test: c-Kit AlphaScreen kinase assay; type: biochemical
Protocol: (§1) Kinase activity and compound inhibition are investigated using one or more assay formats. The ATP concentrations for each assay are selected to be close to the Michaelis-Menten constant (KM) for each individual kinase. Dose-response experiments are performed at 10 different inhibitor concentrations in a 384-well plate format. […] Exemplary kinase assays are described below. KDR Assay
c-Kit biochemical activity was assessed using AlphaScreen™ (Perkin Elmer) technology, described above. Test compounds, ATP, biotinylated poly(Glu, Tyr) and c-Kit kinase were combined in a volume of 20 μL in a 384-well white, medium binding microtiter plate (Greiner). Reaction mixtures were incubated for 1 hr at ambient temperature. Reactions were quenched by addition of 10 uL of […] AlphaScreen bead suspension containing 75 mM Hepes, pH 7.4, 300 mM NaCl, 120 mM EDTA, 0.3% BSA and 0.03% Tween-20. After 16 hr incubation at ambient temperature plates were read using an AlphaQuest reader (Perkin Elmer).

EGFR = EGFR (Homo sapiens, UniProt P00533); test: Kinase assay, EGFR (33P-ATP incorporation or luciferase-coupled ATP consumption); type: biochemical
EGFR, sequence (P00533 25-1210, species assumed): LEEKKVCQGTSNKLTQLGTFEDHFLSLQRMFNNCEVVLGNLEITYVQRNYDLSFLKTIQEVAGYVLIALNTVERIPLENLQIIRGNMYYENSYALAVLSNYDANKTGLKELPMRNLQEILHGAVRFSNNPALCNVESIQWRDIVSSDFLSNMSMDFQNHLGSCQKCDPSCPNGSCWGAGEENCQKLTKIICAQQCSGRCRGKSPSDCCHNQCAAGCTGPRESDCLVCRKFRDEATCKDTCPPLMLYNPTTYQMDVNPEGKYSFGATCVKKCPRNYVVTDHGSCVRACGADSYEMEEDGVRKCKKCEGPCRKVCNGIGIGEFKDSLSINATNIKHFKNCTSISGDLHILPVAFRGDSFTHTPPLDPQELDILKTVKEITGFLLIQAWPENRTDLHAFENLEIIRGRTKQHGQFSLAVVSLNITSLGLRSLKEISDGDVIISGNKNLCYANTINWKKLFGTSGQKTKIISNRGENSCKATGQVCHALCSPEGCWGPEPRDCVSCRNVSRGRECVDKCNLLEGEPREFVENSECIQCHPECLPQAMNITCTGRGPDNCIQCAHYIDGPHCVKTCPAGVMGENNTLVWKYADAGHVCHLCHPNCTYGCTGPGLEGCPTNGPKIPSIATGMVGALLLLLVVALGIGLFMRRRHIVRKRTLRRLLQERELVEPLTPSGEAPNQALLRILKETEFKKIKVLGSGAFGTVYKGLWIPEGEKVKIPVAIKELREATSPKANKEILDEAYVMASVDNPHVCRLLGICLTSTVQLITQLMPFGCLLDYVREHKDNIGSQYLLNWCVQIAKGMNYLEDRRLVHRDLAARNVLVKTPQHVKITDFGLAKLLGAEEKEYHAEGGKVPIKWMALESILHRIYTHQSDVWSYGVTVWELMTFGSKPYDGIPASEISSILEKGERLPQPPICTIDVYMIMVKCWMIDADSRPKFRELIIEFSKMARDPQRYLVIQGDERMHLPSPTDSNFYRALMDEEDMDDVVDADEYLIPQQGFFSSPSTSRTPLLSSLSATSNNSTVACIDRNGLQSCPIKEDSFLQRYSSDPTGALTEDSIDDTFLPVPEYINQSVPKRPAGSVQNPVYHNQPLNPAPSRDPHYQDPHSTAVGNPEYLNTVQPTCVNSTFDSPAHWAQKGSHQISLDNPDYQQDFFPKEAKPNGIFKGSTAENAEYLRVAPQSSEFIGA
Outline: (§2)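 Two formats used: luciferase/luciferin chemiluminescence of ATP consumed with pEY, or radiometric 33P transfer to plate-bound MBP or pEY read by scintillation.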

PDGFR alpha = PDGFR alpha (Homo sapiens, UniProt P16234); test: Kinase assay, PDGFR alpha (33P-ATP incorporation or luciferase-coupled ATP consumption); type: biochemical; conditions: read-out: PDGF-R-A IC50
PDGFR alpha, sequence (P16234 24-1089): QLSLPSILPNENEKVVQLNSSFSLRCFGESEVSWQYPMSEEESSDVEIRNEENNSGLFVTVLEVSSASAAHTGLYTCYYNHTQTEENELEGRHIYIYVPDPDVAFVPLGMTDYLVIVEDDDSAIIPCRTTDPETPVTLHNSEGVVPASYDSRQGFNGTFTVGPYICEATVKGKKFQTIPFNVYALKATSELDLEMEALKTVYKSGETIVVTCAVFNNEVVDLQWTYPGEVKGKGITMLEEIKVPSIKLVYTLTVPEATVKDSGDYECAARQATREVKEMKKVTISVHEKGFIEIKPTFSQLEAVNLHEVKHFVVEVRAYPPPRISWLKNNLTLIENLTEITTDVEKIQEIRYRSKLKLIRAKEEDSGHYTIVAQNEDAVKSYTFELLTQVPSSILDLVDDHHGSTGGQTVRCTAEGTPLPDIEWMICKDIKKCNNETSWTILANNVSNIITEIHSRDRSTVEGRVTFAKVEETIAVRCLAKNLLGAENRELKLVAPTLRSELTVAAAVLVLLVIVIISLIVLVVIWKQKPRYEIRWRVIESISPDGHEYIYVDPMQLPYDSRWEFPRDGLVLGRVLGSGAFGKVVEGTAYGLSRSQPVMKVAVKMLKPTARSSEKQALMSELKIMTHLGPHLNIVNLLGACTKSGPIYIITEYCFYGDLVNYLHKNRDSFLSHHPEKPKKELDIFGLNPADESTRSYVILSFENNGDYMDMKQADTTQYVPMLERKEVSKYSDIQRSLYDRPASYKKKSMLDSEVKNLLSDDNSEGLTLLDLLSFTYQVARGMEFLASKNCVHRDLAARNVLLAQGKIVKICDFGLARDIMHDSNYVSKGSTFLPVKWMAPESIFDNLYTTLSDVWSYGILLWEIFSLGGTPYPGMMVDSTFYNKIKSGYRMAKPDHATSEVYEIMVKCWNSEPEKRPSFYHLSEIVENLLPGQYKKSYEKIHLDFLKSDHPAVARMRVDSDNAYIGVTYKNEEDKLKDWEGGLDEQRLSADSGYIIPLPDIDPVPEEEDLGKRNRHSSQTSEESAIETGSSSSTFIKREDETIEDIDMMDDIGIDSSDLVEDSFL
Outline: as §2

Flt-1 = Flt-1 (Homo sapiens, UniProt P17948); test: Kinase assay, Flt-1 (33P-ATP incorporation or luciferase-coupled ATP consumption); type: biochemical; conditions: read-out: Flt1 IC50
Outline: as §2

FGFR1 = FGFR1 (Homo sapiens, UniProt P11362); test: Kinase assay, FGFR1 (33P-ATP incorporation or luciferase-coupled ATP consumption); type: biochemical
FGFR1, sequence (P11362 22-822, species assumed): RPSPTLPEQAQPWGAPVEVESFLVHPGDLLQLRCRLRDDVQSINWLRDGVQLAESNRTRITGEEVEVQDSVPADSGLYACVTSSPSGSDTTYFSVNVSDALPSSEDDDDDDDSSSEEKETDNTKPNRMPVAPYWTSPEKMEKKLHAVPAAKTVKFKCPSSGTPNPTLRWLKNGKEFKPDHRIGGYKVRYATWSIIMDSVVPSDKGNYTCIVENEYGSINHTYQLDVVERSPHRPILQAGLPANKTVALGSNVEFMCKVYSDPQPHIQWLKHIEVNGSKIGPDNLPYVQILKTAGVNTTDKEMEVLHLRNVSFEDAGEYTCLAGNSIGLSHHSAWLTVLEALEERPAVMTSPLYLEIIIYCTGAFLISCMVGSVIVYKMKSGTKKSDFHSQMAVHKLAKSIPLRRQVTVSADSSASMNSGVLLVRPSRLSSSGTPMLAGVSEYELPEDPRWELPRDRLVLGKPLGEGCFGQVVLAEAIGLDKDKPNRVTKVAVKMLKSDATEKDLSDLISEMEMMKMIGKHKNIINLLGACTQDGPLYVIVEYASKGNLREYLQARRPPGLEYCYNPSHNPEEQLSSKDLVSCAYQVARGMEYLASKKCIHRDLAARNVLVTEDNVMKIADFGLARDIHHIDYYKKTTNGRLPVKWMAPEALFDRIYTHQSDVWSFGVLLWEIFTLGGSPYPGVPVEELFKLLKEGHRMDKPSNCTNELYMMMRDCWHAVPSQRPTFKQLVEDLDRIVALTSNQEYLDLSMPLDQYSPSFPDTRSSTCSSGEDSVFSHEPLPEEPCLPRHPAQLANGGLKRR
Outline: as §2

EphA2 = EphA2 (Homo sapiens, UniProt P29317); test: Kinase assay, EphA2 (33P-ATP incorporation or luciferase-coupled ATP consumption); type: biochemical
EphA2, sequence (P29317 24-976, species assumed): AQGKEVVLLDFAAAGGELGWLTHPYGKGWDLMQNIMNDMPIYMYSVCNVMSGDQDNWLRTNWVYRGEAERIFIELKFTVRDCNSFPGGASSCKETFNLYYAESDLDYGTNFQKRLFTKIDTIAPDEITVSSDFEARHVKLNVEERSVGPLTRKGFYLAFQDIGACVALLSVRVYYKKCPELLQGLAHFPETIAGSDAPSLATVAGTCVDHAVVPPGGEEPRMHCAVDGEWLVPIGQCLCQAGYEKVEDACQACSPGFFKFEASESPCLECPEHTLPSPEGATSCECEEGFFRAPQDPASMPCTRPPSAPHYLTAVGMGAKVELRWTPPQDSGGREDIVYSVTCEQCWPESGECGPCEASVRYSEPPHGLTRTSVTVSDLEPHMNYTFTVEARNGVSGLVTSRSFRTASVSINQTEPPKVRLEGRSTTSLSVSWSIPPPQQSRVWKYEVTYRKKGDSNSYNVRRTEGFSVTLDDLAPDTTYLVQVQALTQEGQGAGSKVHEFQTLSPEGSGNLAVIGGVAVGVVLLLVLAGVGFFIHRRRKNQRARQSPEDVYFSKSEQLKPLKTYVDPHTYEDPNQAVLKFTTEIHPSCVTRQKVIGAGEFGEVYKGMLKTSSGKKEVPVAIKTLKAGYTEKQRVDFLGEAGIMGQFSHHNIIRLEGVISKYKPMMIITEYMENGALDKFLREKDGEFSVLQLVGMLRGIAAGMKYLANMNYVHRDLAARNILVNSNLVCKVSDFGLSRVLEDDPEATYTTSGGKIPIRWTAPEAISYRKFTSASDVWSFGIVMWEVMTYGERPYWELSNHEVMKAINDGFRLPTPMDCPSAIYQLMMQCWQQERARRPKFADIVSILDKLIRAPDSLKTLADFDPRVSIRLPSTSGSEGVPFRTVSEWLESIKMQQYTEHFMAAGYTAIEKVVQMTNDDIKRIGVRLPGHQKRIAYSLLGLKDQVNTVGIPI
Outline: as §2

IRK = IRK (Homo sapiens, UniProt P06213); test: Kinase assay, IRK; type: biochemical
Protocol: as §1

Fyn = Fyn (Homo sapiens, UniProt P06241); test: Kinase assay, Fyn; type: biochemical
Fyn, sequence (P06241 whole entry, species assumed): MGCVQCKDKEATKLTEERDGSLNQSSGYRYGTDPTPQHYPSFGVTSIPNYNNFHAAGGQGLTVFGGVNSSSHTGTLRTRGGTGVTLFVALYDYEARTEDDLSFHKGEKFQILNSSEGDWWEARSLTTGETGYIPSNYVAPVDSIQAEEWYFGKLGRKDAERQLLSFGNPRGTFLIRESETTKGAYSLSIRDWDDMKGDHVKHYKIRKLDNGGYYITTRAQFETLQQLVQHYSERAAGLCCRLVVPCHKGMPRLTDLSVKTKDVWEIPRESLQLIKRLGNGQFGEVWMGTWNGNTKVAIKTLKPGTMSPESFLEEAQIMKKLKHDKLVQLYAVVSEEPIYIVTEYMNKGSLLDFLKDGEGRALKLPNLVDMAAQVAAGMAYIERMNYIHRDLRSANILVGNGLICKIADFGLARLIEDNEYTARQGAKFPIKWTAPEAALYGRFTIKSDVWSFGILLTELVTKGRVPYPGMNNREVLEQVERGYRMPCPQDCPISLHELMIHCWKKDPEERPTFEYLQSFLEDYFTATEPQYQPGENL
Protocol: as §1

[1] = target: T1, KDR (baculovirus expressed human KDR kinase domain D807-V1356) (Homo sapiens, UniProt P35968); test: biochemical
T1 construct: human KDR kinase domain D807-V1356; host or cells: baculovirus expression system
T1 sequence (P35968 807-1356): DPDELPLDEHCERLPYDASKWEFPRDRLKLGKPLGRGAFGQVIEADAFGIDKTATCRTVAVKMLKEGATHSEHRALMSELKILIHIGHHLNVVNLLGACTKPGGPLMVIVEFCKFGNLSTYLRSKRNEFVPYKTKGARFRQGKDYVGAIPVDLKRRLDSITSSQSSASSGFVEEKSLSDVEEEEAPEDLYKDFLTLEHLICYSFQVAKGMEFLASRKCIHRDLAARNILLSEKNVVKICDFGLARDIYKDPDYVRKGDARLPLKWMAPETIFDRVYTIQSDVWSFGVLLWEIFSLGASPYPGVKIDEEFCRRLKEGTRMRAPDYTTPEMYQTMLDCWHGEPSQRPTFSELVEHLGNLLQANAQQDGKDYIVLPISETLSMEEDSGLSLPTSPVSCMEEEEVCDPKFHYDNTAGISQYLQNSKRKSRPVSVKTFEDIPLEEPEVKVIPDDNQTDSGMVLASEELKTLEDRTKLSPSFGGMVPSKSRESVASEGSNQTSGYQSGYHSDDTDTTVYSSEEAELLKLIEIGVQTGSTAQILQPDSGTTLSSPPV
Outline: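 Baculovirus human KDR kinase domain (D807–V1356) with ATP near its KM; 10-point dose-response, 4 h at ambient temperature. Activity taken as percent ATP remaining, detected by luciferase–luciferin chemiluminescence.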

ALK = ALK (Homo sapiens, UniProt Q9UM73); test: Kinase assay, ALK (33P-ATP incorporation or luciferase-coupled ATP consumption); type: biochemical
Protocol: Kinase assays were performed by measurement of incorporation of γ-^33P ATP into immobilized myelin basic protein (MBP). […] Plates were washed 3× with 100 μl TBS. […] Compound dilutions were performed in DMSO and added to assay wells to a final DMSO concentration of 1%. Each data point was measured in duplicate, and at least two duplicate assays were performed for each individual compound determination. Enzyme was added to final concentrations of 10 nM or 20 nM, for example. A mixture of unlabeled ATP and γ-^33P ATP was added to start the reaction (2×10^6 cpm of γ-^33P ATP per well (3000 Ci/mmole) and either 10 μM or 30 μM unlabeled ATP, typically. The reactions were carried out for 1 hour at room temperature with shaking. Plates were washed 7× with TBS, followed by the addition of 50 μl/well scintillation fluid (Wallac). Plates were read using a Wallac Trilux counter. This is only one format of such assays, various other formats are possible, as known to one of ordinary skill in the art.
Tyrosine kinase activity is determined by 1) measurement of kinase-dependent ATP consumption by in the presence of a generic substrate such as, polyglutamic acid, tyrosine, 4:1 (pEY), by luciferase/luciferin-mediated chemiluminescence or; 2) incorporation of radioactive phosphate derived from ^33P-ATP into a generic substrate which has been adsorbed onto the well surface of polystyrene microtiter plates. Phosphorylated substrate products are quantified by scintillation spectrometry.
as §1

SMILES	IC50 (c-Kit kinase)	IC50 (EGFR)	IC50 (PDGFR alpha)	IC50 (Flt-1)	IC50 (FGFR1)	IC50 (EphA2)	IC50 (IRK)	IC50 (Fyn)	IC50 [1]	IC50 (ALK)
CCN1CCC(Nc2ccc3c(c2)/C(=C(\c2ccc(C)cc2)c2ncc[nH]2)C(=O)N3)CC1 [Entry 13, (3Z)-5-[(1-ethylpiperidin-4-yl)amino]-3-[1H-imidazol-2-yl(4-methylphenyl)methylidene]-1,3-dihydro-2H-indol-2-one]	50 to 500 nM	50 to 500 nM	< 50 nM	50 to 500 nM	< 50 nM	50 to 500 nM	500 to 5000 nM	< 50 nM	< 50 nM	
COCCN1CCC(Nc2ccc3c(c2)/C(=C(\c2cccc(F)c2)c2ncc[nH]2)C(=O)N3)CC1 [Entry 41, (3Z)-3-[(3-fluorophenyl)(1H-imidazol-2-yl)methylidene]-5-({1-[2-(methyloxy)ethyl]piperidin-4-yl}amino)-1,3-dihydro-2H-indol-2-one]	50 to 500 nM	50 to 500 nM	< 50 nM	50 to 500 nM	< 50 nM	500 to 5000 nM	500 to 5000 nM	< 50 nM	< 50 nM	
CCN1CCC(Nc2ccc3c(c2)/C(=C(\c2ccc(C)c(F)c2)c2ncc[nH]2)C(=O)N3)CC1 [Entry 57, (3Z)-5-[(1-ethylpiperidin-4-yl)amino]-3-[(3-fluoro-4-methylphenyl)(1H-imidazol-2-yl)methylidene]-1,3-dihydro-2H-indol-2-one]			< 50 nM		< 50 nM	50 to 500 nM	500 to 5000 nM	< 50 nM	< 50 nM	50 to 500 nM
CCN1CCC(Nc2ccc3c(c2)/C(=C(\c2ccc(F)cc2)c2ncc[nH]2)C(=O)N3)CC1 [Entry 58, (3Z)-5-[(1-ethylpiperidin-4-yl)amino]-3-[(4-fluorophenyl)(1H-imidazol-2-yl)methylidene]-1,3-dihydro-2H-indol-2-one]	< 50 nM	500 to 5000 nM	< 50 nM		< 50 nM	500 to 5000 nM	> 5000 nM	< 50 nM	< 50 nM	50 to 500 nM
CCN1CCC(Nc2ccc3c(c2)/C(=C(\c2ccc(C)cc2)c2nc(C)c[nH]2)C(=O)N3)CC1 [Entry 64, (3Z)-5-[(1-ethylpiperidin-4-yl)amino]-3-[(4-methyl-1H-imidazol-2-yl)(4-methylphenyl)methylidene] 1,3-dihydro-2H-indol-2-one]		50 to 500 nM	< 50 nM		< 50 nM	50 to 500 nM	500 to 5000 nM	< 50 nM	< 50 nM	< 50 nM
CCN1CCC(Nc2ccc3c(c2)/C(=C(\c2ccc(C)c(F)c2)c2nc(C)c[nH]2)C(=O)N3)CC1 [Entry 67, (3Z)-5-[(1-ethylpiperidin-4-yl)amino]-3-[(3-fluoro-4-methylphenyl) (4-methyl-1H-imidazol-2-yl)methylidene]-1,3-dihydro-2H-indol-2-one]		< 50 nM	< 50 nM		< 50 nM	50 to 500 nM	500 to 5000 nM	< 50 nM	< 50 nM	< 50 nM
COCCN1CCC(Nc2ccc3c(c2)/C(=C(\c2ccc(C)c(F)c2)c2nc(C)c[nH]2)C(=O)N3)CC1 [Entry 97]		< 50 nM			< 50 nM	500 to 5000 nM	500 to 5000 nM	< 50 nM	< 50 nM	< 50 nM
CCN1CCC(Nc2ccc3c(c2)/C(=C(\c2ccc(Cl)cc2)c2nc(C)c[nH]2)C(=O)N3)CC1 [Entry 102]	< 50 nM	50 to 500 nM	< 50 nM		< 50 nM	500 to 5000 nM	500 to 5000 nM	< 50 nM	< 50 nM	< 50 nM
CCN1CCC(Nc2ccc3c(c2)/C(=C(/c2ncc[nH]2)c2cccc(F)c2F)C(=O)N3)CC1 [Entry 109, (3Z)-3-[(2,3-difluorophenyl)(1H-imidazol-2-yl)methylidene]-5-[(1-ethylpiperidin-4-yl)amino]-1,3-dihydro-2H-indol-2-one]	< 50 nM	50 to 500 nM	< 50 nM		< 50 nM	500 to 5000 nM	500 to 5000 nM	< 50 nM	< 50 nM	
CCN1CCC(Nc2ccc3c(c2)/C(=C(/c2nc(C)c[nH]2)c2cccc(F)c2F)C(=O)N3)CC1 [Entry 110, (3Z)-3-[(2,3-difluorophenyl)(4-methyl-1H-imidazol-2-yl)methylidene]-5-[(1-ethylpiperidin-4-yl)amino]-1,3-dihydro-2H-indol-2-one]	< 50 nM	50 to 500 nM	< 50 nM		< 50 nM	500 to 5000 nM	500 to 5000 nM	< 50 nM	< 50 nM	< 50 nM
CCN1CCC(Nc2ccc3c(c2)/C(=C(/c2nc(C)c[nH]2)c2ccc(F)cc2F)C(=O)N3)CC1 [Entry 111, (3Z)-3-[(2,4-difluorophenyl)(4-methyl-1H-imidazol-2-yl)methylidene]-5-[(1-ethylpiperidin-4-yl)amino]-1,3-dihydro-2H-indol-2-one]	< 50 nM	50 to 500 nM	< 50 nM		50 to 500 nM	500 to 5000 nM	500 to 5000 nM	< 50 nM	< 50 nM	50 to 500 nM
CCN1CCC(Nc2ccc3c(c2)/C(=C(/c2ncc[nH]2)c2ccc(F)cc2F)C(=O)N3)CC1 [Entry 112, (3Z)-3-[(2,4-difluorophenyl)(1H-imidazol-2-yl)methylidene]-5-[(1-ethylpiperidin-4-yl)amino]-1,3-dihydro-2H-indol-2-one]	< 50 nM	50 to 500 nM	< 50 nM		< 50 nM	500 to 5000 nM	500 to 5000 nM	< 50 nM	< 50 nM	
CCN1CCC(Nc2ccc3c(c2)/C(=C(\c2cccc(C(F)(F)F)c2)c2ncc[nH]2)C(=O)N3)CC1 [Entry 114, (3Z)-3-[(3-trifluoromethylphenyl)(1H-imidazol-2-yl)methylidene]-5-[(1-ethylpiperidin-4-yl)amino]-1,3-dihydro-2H-indol-2-one]	50 to 500 nM	500 to 5000 nM	< 50 nM		50 to 500 nM	500 to 5000 nM	> 5000 nM	50 to 500 nM	< 50 nM	
CCN1CCC(Nc2ccc3c(c2)/C(=C(\c2cccc(C(F)(F)F)c2)c2nc(C)c[nH]2)C(=O)N3)CC1 [Entry 115, (3Z)-3-[(3-trifluoromethylphenyl)(4-methyl-1H-imidazol-2-yl)methylidene]-5-[(1-ethylpiperidin-4-yl)amino]-1,3-dihydro-2H-indol-2-one]	< 50 nM	500 to 5000 nM	< 50 nM		50 to 500 nM	500 to 5000 nM	500 to 5000 nM	50 to 500 nM	< 50 nM	
CCN1CCC(Nc2ccc3c(c2)/C(=C(/c2nc(C)c[nH]2)c2ccc(Cl)cc2F)C(=O)N3)CC1 [Entry 118, (3Z)-3-[(4-chloro-2-fluorophenyl)(4-methyl-1H-imidazol-2-yl)methylidene]-5-[(1-ethylpiperidin-4-yl)amino]-1,3-dihydro-2H-indol-2-one]	< 50 nM	< 50 nM			< 50 nM	500 to 5000 nM	50 to 500 nM	< 50 nM	< 50 nM	< 50 nM

Reference: patent publication US7626031B2, “Substituted 3-(diarylmethylene)indolin-2-ones and methods of their use” (Symphony Evolution, Inc., priority 2002, dated 2009)
